In article PMC12529164, “Design, Synthesis, Structure–Activity Relationships, and Preliminary Anticancer Properties of Menthol-Modified Coumarin Esters and 3,4-Dihydrocoumarin Derivatives” (ACS Omega, 2025):
Read-outs that look alike come from different tables or passages of the source.

Columns and labels:
[1] = tested on: tested cancer cell lines (SW480, SW620, PC3, MDA-MB-231); experiment: MTT assay, mean over tested cancer cell lines; assay type: cell-based; settings: Homo sapiens, mean of the four cancer cell lines
Method: They were added to 96-well plates with seeded normal and cancer cells (1 × 10^4 cells per well) and incubated for 72 h. MTT analysis was performed according to a previous study. […]

[2] = tested on: HaCaT; experiment: MTT cytotoxicity assay, normal cells; assay type: cell-based; settings: HaCaT, 72 h, human immortal keratinocytes (normal cells)
Method: (§1) The human primary (SW480) and metastatic (SW620) colon cancer, metastatic prostate cancer (PC3), breast adenocarcinoma (MDA-MB-231) and human immortal keratinocyte (HaCaT) cell lines were recruited from the American Type Culture Collection (ATCC). The cells were cultured in the recommended medium according to protocols (RPMI 1640 for PC3, MEM for SW480 and SW620, as well as DMEM for MDA-MB-231 and HaCaT cells) with addition of 10% FBS, penicillin (100 U/mL), and streptomycin (100 μg/mL) and cultured in 37 °C/5% CO2 in a humidified incubator. Then, the cells were passaged at a confluence of 80–90% by a treatment with 0.25% trypsin (Gibco Life Technologies) and used for studies.
(§2) They were added to 96-well plates with seeded normal and cancer cells (1 × 10^4 cells per well) and incubated for 72 h. MTT analysis was performed according to a previous study.

[3] = tested on: SW620; experiment: MTT cytotoxicity assay; assay type: cell-based, human
Method: as §1, §2

[4] = tested on: SW480; experiment: MTT cytotoxicity assay; assay type: cell-based, human
Method: as §1, §2

[5] = tested on: PC3; experiment: MTT cytotoxicity assay; assay type: cell-based, human
Method: as §1, §2

[6] = tested on: MDA-MB-231; experiment: MTT cytotoxicity assay; assay type: cell-based, human
Method: as §1, §2

[7] = tested on: Danio rerio larvae; experiment: In vivo toxicity, maximum tolerated concentration; settings: zebrafish larvae, immersion from 96 hpf for 18 h (120 hpf), 5-150 μM tested
Method: Zebrafish (Danio rerio, strain AB) was maintained at the Experimental Medicine Center, Medical University of Lublin, Poland. Embryos and larvae up to 120 h postfertilization (hpf) were kept under generally accepted environmental conditions, i.e., in incubators at 28.5 °C, with 14/10 h light/dark cycles. The embryos of the Zebrafish were harvested after the natural reproduction process.
Three compounds showing low IC50 values determined on cancer lines in in vitro tests (2b, 4a) and compound 1a characterized by low cytotoxicity were used for in vivo tests. We also conducted research for coumarin. These compounds were dissolved in dimethyl sulfoxide (DMSO) (Sigma-Aldrich, St. Louis, MO, USA) and diluted in the zebrafish medium (pH 7.1–7.3; 5.0 mM NaCl, 0.17 mM KCl, 0.33 mM CaCl2, 0.33 mM MgSO4) to achieve a final DMSO concentration of 1% w/v. Twenty-four hpf zebrafish embryos were investigated under a light microscope, and […] fertilized embryos (n = 60) were selected and transferred into 48-well plates (5 embryos per well). Larvae were incubated in 1 mL of the zebrafish medium for up to 3 days after fertilization.
On the fourth day postfertilization (96 hpf), the larvae (10 individuals per group) were incubated in solutions of coumarin or its three derivatives (1a, 2b, 4a) at selected concentrations (5, 10, 25, 50, 75, 100, 150 μM), along with control solutions: negative control (zebrafish medium) and solvent control (1% DMSO in zebrafish medium). The maximum tolerated concentration (MTC) was calculated to assess the toxicity of the compounds and extracts. […] Larvae were individually inspected under a microscope for signs of acute locomotor dysfunction, including a weak reaction to light tail stimulation with a fine needle, disrupted posture, body deformities, protruding eyes, slowed or absent heartbeat, and mortality.

[8] = tested on: SW620; experiment: Trypan blue assay; assay type: cell-based, human; settings: SW620, compound at IC50, 72 h
Method: (§3) The total cell count was assessed by trypan blue exclusion dye assay using automated cell counter (Countess Invitrogen). Untreated cells were used as the control. Each experiment was repeated 5 times.

[9] = tested on: SW480; experiment: Trypan blue assay; assay type: cell-based, human; settings: SW480, compound at IC50, 72 h
Method: as §3

[10] = tested on: PC3; experiment: Trypan blue assay; assay type: cell-based, human; settings: PC3, compound at IC50, 72 h
Method: as §3

[11] = tested on: HaCaT; experiment: Trypan blue assay; assay type: cell-based, human; settings: compound at IC50, 72 h
Method: as §3

[12] = Trypan blue assay; assay type: cell-based, human; settings: human, HaCaT cells, compound at IC50, 72 h, mean
Method: as §3

[13] = tested on: IL-6 in SW620 cells; experiment: Interleukin-6 ELISA; assay type: cell-based, human; settings: SW620, compound at IC50, 72 h
Method: (§4) The concentration of Interleukin-6 (IL-6) was measured in cell culture supernatant using Interleukin IL-6 High Sensitivity ELISA kit (Diaclon SAS, Besancon Cedex, France). Cells (1 × 10^5 cells/well) were seeded in 12-well plates with medium for 24 h. […] After this incubation, the supernatants were collected and 100 μL of supernatant samples, control solutions and blank were added to precoated ELISA plate with the preceding plotting of the standard curve. Then 50 μL of diluted biotinylated antihuman interleukin-6 antibody was added and incubated at room temperature for 3 h. Afterward, the plate was washed three times and 100 μL streptavidin-HRP solution was added to each well. After 30 min incubation, the plate was washed again three times and 100 μL of tetramethylbenzidine (TMB) solution was added to each well. The plate was incubated for 15 min in the dark. The reaction was stopped by adding 100 μL of H2SO4 solution. The absorbance was estimated using a spectrophotometer at 450 nm (Microplate Spectrophotometer Thermo Scientific Multiskan GO).

[14] = tested on: IL-6 in SW480 cells; experiment: Interleukin-6 ELISA; assay type: cell-based, human; settings: SW480, compound at IC50, 72 h
Method: as §4

[15] = tested on: IL-6 in PC3 cells; experiment: Interleukin-6 ELISA; assay type: cell-based, human; settings: PC3, compound at IC50, 72 h
Method: as §4

[16] = SI = IC50 for normal cell line (HaCaT)/IC50 cancer cell line

CC(C)[C@@H]1CC[C@@H](C)C[C@H]1OC(=O)C1C(=O)Oc2ccccc2C1P(=O)(c1ccccc1)c1ccccc1 (mixture of isomers) [Compound 4a, (1R,2S,5R)-2-Isopropyl-5-methylcyclohexyl-4-(diphenylphosphoryl)-2-oxochromane-3-carboxylate]
IC50 ([1]; Table S7, >100 entered as 100, read-out: mean anticancer IC50): 11.6 µM
IC50 ([1]; read-out: average IC50 against tested cancer cell lines): 11.6 µM
IC50 [2]: 15.1 ± 2.76 µM
SI SW620 [3, 16]: 2.21
IC50 ([3]; SW-620, MTT, 72 h, human metastatic colon cancer): 6.8 ± 0.55 µM
SI SW480 [4, 16]: 3.28
IC50 ([4]; SW480, MTT, 72 h, human primary colon cancer): 4.6 ± 1.01 µM
IC50 ([5]; PC-3, MTT, 72 h, human metastatic prostate cancer): 9.8 ± 2.02 µM
SI PC3 [5, 16]: 1.53
IC50 ([6]; MDA-MB-231, MTT, 72 h, human breast adenocarcinoma): 25.3 ± 4.59 µM
SI MDA-MB-231 [6, 16]: 0.60
maximum tolerated concentration (MTC) [7]: 75 µM
cell number ([8]; mean): 1.86 x106
viability (%) ([8]; mean): 98%
reduction of number of live cells ([8]; vs control): 47.6%
cell number ([9]; mean): 0.72 x106
viability (%) ([9]; mean): 93.66%
reduction of number of live cells ([9]; vs control): 79.9%
cell number ([10]; mean): 2.5 x106
viability (%) ([10]; mean): 94.33%
reduction of number of live cells ([10]; vs control): 62.1%
cell number ([11]; mean): 4.26 x106
reduction of number of cells ([11]; vs control): 31.9%
viability at 72 h [12]: 96%
IL-6 concentration ([13]; ELISA): 0.9 ± 0.27 pg/mL
reduction of IL-6 level ([13]; vs control): 69.1%
IL-6 concentration ([14]; ELISA): 0.9 ± 0.33 pg/mL
reduction of IL-6 level ([14]; vs control): 77.6%
IL-6 concentration ([15]; ELISA): 0.6 ± 0.09 pg/mL
reduction of IL-6 level ([15]; vs control): 87.2%
